The source of these data is paper PMC12083136 (Microbiome, 2025).

The IC50 is the midpoint of a concentration-inhibition curve. A low value points to higher potency.

The test system of the assay is ruminal bacterial urease. The assay can be described thus: urease activity. The class given is biochemical.

For the compound `C=CCS[S+]([O-])CC=C` (stereo not shown) [allicin], the concentration for half-maximal inhibition (IC50) turned out to be 126.8 ± 1.2 µM.
